Bridge positions count the residues as written; N and C are the ends. Square brackets hold non-standard residues; d marks the D form. Peptide text beside a SMILES is read from it. * marks the point of attachment. Decanoyl = CCCCCCCCCC(=O)*; dDab = NCC[C@@H](N)C(=O)O; Dab = NCC[C@H](N)C(=O)O
Assays:
Format in all cases: functional
[1] = system: Pseudomonas aeruginosa; test: Antibacterial activity against Pseudomonas aeruginosa FADDI-PA070 incubated for 18 hrs by broth microdilution method
[2] = system: Pseudomonas aeruginosa; test: Antibacterial activity against Pseudomonas aeruginosa FADDI-PA060 incubated for 18 hrs by broth microdilution method
[3] = system: Pseudomonas aeruginosa; test: Antibacterial activity against Pseudomonas aeruginosa ATCC 27853 incubated for 18 hrs by broth microdilution method
[4] = system: Pseudomonas aeruginosa; test: Antibacterial activity against Pseudomonas aeruginosa FADDI-PA090 incubated for 18 hrs by broth microdilution method
[5] = system: Pseudomonas aeruginosa; test: Antibacterial activity against Pseudomonas aeruginosa FADDI-PA025 incubated for 18 hrs by broth microdilution method

Measured: MIC

CCCCCCCCCC(=O)N[C@H](CCN)C(=O)N[C@H]1CCNC(=O)[C@H]([C@@H](C)O)NC(=O)[C@H](CCN)NC(=O)[C@H](CCN)NC(=O)[C@H](CC(C)C)NC(=O)[C@@H](Cc2ccccc2)NC(=O)[C@H](CCN)NC1=O (Decanoyl-[dDab][Dab][Dab][dF]L[Dab][Dab]T; lactam 2-C)
0.5 µg/mL: all assays above
